Data: article PMC8773213, “In Vitro Anticancer Activity and Mechanism of Action of an Aziridinyl Galactopyranoside” (Biomedicines, 2021)

Legend:
[1] = system: UV4 cells (mutated in ERCC1, NER deficient); test: MTT cell viability assay, UV4 cells; format: cell-based, Chinese hamster
Method: (§1) Exponentially growing cells were seeded in 96-well plates and allowed to attach and grow for 24 h. The cells were then treated with increasing concentrations of the tested drugs. At the end of the treatment period, cell viability was measured with the MTT assay or the resazurin assay, two widely used techniques.
In the case of the MTT assay, this technique detects viable cells using the ability of these cells to reduce the yellow tetrazolium MTT to an insoluble colored formazan product. Subsequently, this product was solubilized and analyzed by spectrophotometry. Dead cells cannot reduce the MTT into the colored formazan product. Briefly, 24 h after plating, cells were treated with the tested compounds for 48 h; except in experiments with DNA repair-proficient and -deficient cell lines, in which cells were only exposed for 24 h to drugs and allowed to grow for an additional 48 h in drug-free medium to allow them to repair possible DNA damage induced by the tested drugs. […] Finally, plates were incubated overnight at 37 °C and optical densities were measured at 540 nm using an absorbance spectrophotometer microplate reader.
In both assays, cell viability was expressed as percentage compared to untreated cells. Results were expressed as the means ± standard error of the mean (SEM). […]

AA8 cells = test: Comet assay (DNA damage); format: cell-based, Chinese hamster; conditions: 4 h
Text: The single cell gel electrophoresis assay, also known as comet assay, is a widely used technique for the study of levels of damage in cellular DNA. In this assay, individual cells embedded in agarose are lysed, electrophoresed, stained with a fluorescent dye and examined under an epifluorescence microscope. […] The quantity of DNA present in the tail is indicative of DNA damage. This assay has been described in detail by Singh et al.. We followed this protocol with minor modifications previously described. Briefly, standard slides were immersed in 1% normal melting agarose at 55 °C, left to allow the agarose to solidify and kept at 4 °C until use. Cells were seeded in 6-well plates, allowed to grow for 24 h and then cells were exposed to AzGalp or CTP (positive control) for 4 h. At the end of the treatment, cells were harvested by trypsinization, washed with PBS and resuspended in PBS at a concentration of approximately 1 million cells/mL; 10 µL cell suspension was mixed with 85 μL of low-melting agarose (LMA) at 37 °C and the mixture was quickly added to the slides with the first layer of agarose, spread using a coverslip and kept at 4 °C for 8 min to allow the LMA to solidify. The coverslips were then removed and another layer of 100 μL of LMA at 37 °C was added, covered with a coverslip and allowed to solidify at 4 °C for 8 min. After removing the coverslips, the slides were incubated in the dark for 1 h at 4 °C in a lysis buffer (pH 10.0) containing 0.25 M NaOH, 10% DMSO, 1% Triton X-100, 10 mM Tris-HCl, 100 mM Na2-EDTA and 2.5 M NaCl. Next, alkaline denaturation with electrophoretic buffer (300 mM NaOH and 1 mM Na2-EDTA) was carried out in an electrophoresis chamber for 20 min and then electrophoresis was performed at 1 V/cm for 20 min. […] DNA damage levels were quantified for each cell and expressed as percent of DNA in the tail and as the tail moment (defined as the product of the tail length and the fraction of total DNA in the tail). The results were averaged from two independent experiments and expressed as mean ± SEM.

A549 cells = test: Glycolysis inhibition (glucose consumed, lactate produced); format: cell-based, human; conditions: A549, 8 h
Method: Inhibition of glycolysis was determined by measuring glucose consumed (initial product of glycolysis) and lactate produced (final product of glycolysis) in untreated and treated cells. Cells were seeded in 6-well plates at a density of 10^6 cells/well and were allowed to attach for a few hours before treatment with the tested compounds for 8 h. After treatment, medium was recollected and glucose and lactate concentrations were determined using the Accutrend® Plus analyzer together with Accutrend glucose strips and BM-Lactate strips (Roche Diagnostics, Barcelona, Spain). After calibrating the instrument with glucose and lactate calibration strips, test strips were used to determine glucose and lactate levels through colorimetric oxidase mediator reactions according to the manufacturer’s instructions. The results are expressed as percentage of glucose consumption and percentage of lactate production in relation to untreated cells. Data were averaged from two independent experiments and shown as mean ± SEM.

[2] = system: VH10 (Human skin non-malignant cells); test: Resazurin cell viability assay, VH10; format: cell-based; conditions: 72 h, read-out: IC50 (Mean ± SEM, µM), VH10
Method: as §1
(§2) The resazurin assay is a redox-based colorimetric/fluorometric technique based on the ability of viable cells to reduce the blue compound resazurin into the pink, fluorescent and soluble product resorufin. The amount of resorufin produced is generally proportional to the number of living cells. In this assay, 24 h after seeding, cells were exposed to the tested drugs for 72 h. Then 100 μL resazurin in medium was added to each well (final concentration of 10 μg/mL) and, one hour later the fluorescence intensity was measured at 530/590 nm (excitation/emission) using a fluorescence microplate reader.
(§3) In both assays, cell viability was expressed as percentage compared to untreated cells. Results were expressed as the means ± standard error of the mean (SEM). All data are from at least three independent experiments.

[3] = system: HL-60 (Human acute promyelocytic leukemia cells); test: Resazurin cell viability assay, HL-60; format: cell-based; conditions: 72 h, read-out: IC50 (Mean ± SEM, µM), HL-60
Method: as §1, §2, §3

[4] = system: U2OS (Human osteosarcoma cells); test: Resazurin cell viability assay, U2OS; format: cell-based; conditions: 72 h, read-out: IC50 (Mean ± SEM, µM), U2OS
Method: as §1, §2, §3

[5] = system: BJ-RASV12 (HRASV12-transformed BJ-SV40T cells); test: Resazurin cell viability assay, BJ-RASV12; format: cell-based, human; conditions: 72 h
Method: as §1, §2, §3

[6] = system: A549 human lung cancer cell line and MRC-5 human lung normal cell line; set-up: method as in PMID 24177365; conditions: MTT assay; cited from earlier work

SMILES: Cc1ccc(S(=O)(=O)N2CC2(C)CO[C@@H]2O[C@@H]3CO[C@H](c4ccccc4)O[C@@H]3[C@H](OCc3ccccc3)[C@H]2OCc2ccccc2)cc1 (stereo partly drawn) [AzGalp, 2-methyl-2,3-[N-(4-methylbenzenesulfonyl)imino]propyl 2,3-di-O-benzyl-4,6-O-(S)-benzylidene-β-D-galactopyranoside]
- IC50 ([1]; Cricetulus griseus, UV4, 24 h exposure, then 48 h in drug-free medium, read-out: IC50 (means ± SEM), UV4 cells): 58.6 ± 9.3 µM
- Sensitivity of NER-deficient cells relative to NER-proficient cells ([1]; UV4 and UV5 versus AA8): approximately six times more sensitive
- Level of DNA damage in comet assay (AA8 cells; 50 µM AzGalp versus 10 µM CPT): lower than that of the DNA-damaging agent CPT
- Cells with higher levels of DNA damage than untreated cells (AA8 cells; 50 µM): approximately 30%
- Glycolytic activity (glucose consumption and lactate production) (A549 cells): did not affect the glycolytic activity
- IC50 [2]: 411 ± 39.4 µM
- IC50 [3]: 11.1 ± 0.9 µM
- IC50 [4]: 120 ± 8 µM
- Sensitivity of BJ-RASV12 malignant cells relative to BJ-hTERT non-malignant cells ([5]; resazurin): three times more sensitive
- IC50 ([5]; Homo sapiens, resazurin assay, read-out: IC50 (Mean ± SEM, µM), BJ-RASV12): 76.3 ± 17.8 µM
- Cytotoxicity against A549 lung cancer cells relative to MRC-5 lung normal cells [6]: approximately six times more cytotoxic
